The first test deals with Trypanosoma cruzi glucokinase (TcGlcK) (Trypanosoma cruzi, UniProt Q4E4E1). The test can be described thus: Determination of Ki values by type 1 and type 2 Dixon plots.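 Note: compounds supplied as 10 mM DMSO stocks (100 µL format), with a non-inhibitory compound run alongside for comparison.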 It counts as biochemical.
Sequence of Trypanosoma cruzi glucokinase (TcGlcK) (Q4E4E1 1-376): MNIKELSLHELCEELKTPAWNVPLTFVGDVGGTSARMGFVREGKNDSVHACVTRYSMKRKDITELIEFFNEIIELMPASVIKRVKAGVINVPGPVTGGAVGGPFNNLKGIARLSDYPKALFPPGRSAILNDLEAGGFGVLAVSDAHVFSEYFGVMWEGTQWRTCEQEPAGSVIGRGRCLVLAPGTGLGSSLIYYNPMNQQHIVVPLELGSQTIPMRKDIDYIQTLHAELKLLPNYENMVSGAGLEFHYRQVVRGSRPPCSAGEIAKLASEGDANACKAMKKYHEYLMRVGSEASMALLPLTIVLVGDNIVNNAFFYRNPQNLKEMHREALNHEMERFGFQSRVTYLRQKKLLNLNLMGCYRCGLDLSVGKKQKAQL
Settings: not given
For the molecule `CC(=O)c1ccc(N/C=C2\C(=O)C(O)=C(C(C)C)c3cc(C)c(-c4c(C)cc5c(c4O)/C(=C/Nc4ccc(C(C)=O)cc4)C(=O)C(O)=C5C(C)C)c(O)c32)cc1` (atropisomer, axis not shown) [Inhibitor 19], the affinity, expressed as Ki, was 10.4 µM. This lies in the double-digit micromolar range.
For `Cc1cc2c(C(C)C)c(O)c(O)c(/C=N/c3ccc4c(c3)CCN4S(C)(=O)=O)c2c(O)c1-c1c(C)cc2c(C(C)C)c(O)c(O)c(/C=N/c3ccc4c(c3)CCN4S(C)(=O)=O)c2c1O` (atropisomer, axis not shown) [Inhibitor 51], the affinity, expressed as Ki, was 0.8 µM.
For `Cc1cc(C=O)c(O)c(C=O)c1` [Inhibitor 44], the Ki (as a rule, the equilibrium dissociation constant of an inhibitor or competing ligand from its target) is 99.1 µM. Against the preceding molecule, the Ki is about 120-fold higher.
Molecule `Cc1cc2c(C(C)C)c(O)c(O)c(/C=N/CCOc3ccc4c(c3)OCC4)c2c(O)c1-c1c(C)cc2c(C(C)C)c(O)c(O)c(/C=N/CCOc3ccc4c(c3)OCO4)c2c1O` (atropisomer, axis not shown) [Inhibitor 41] registered a Ki of 328 µM.
For the molecule `O=C1NC(=S)S/C1=C/c1ccc(O)cc1` [Inhibitor 66], the Ki is 14.7 µM.
`Cc1cc2c(c(O)c1-c1c(C)cc3c(c1O)/C(=C/Nc1ccc(S(N)(=O)=O)cc1)C(=O)C(O)=C3C(C)C)/C(=C/Nc1ccc(S(N)(=O)=O)cc1)C(=O)C(O)=C2C(C)C` (atropisomer, axis not shown) [Inhibitor 25] yielded a Ki of 74.3 µM.
On to `COc1ccc2ccccc2c1/C=C1\SC(=S)NC1=O` [Inhibitor 69], for which the Ki worked out at 12.9 µM. Against the preceding molecule, the Ki is about 5.8-fold lower.
Consider `Cc1cc2c(C(C)C)c(O)c(O)c(/C=N/NCc3ccccc3Cl)c2c(O)c1-c1c(C)cc2c(C(C)C)c(O)c(O)c(/C=N/NCc3ccccc3Cl)c2c1O` [Inhibitor 8], for which affinity was put at a Ki of 56.3 µM.
The molecule `Cc1cc2c(c(O)c1-c1c(C)cc3c(c1O)/C(=C/NNC(=O)c1ccncc1)C(=O)C(O)=C3C(C)C)/C(=C/NNC(=O)c1ccncc1)C(=O)C(O)=C2C(C)C` (atropisomer, axis not shown) [Inhibitor 26] came in with a Ki of 213 µM.
`Cc1ccc(OCC/N=C/c2c(O)c(O)c(C(C)C)c3cc(C)c(-c4c(C)cc5c(C(C)C)c(O)c(O)c(/C=N/CCOc6ccc(C)cc6Br)c5c4O)c(O)c23)c(Br)c1` (atropisomer, axis not shown) [Inhibitor 77] returned a Ki of 42.3 µM.
Still for that read-out and setting: the same measure for `Cc1cc2c(c(O)c1-c1c(C)cc3c(c1O)/C(=C/NCCO)C(=O)C(O)=C3C(C)C)/C(=C/NCCO)C(=O)C(O)=C2C(C)C` (atropisomer, axis not shown) [Inhibitor 13]: 422 µM; for `Cc1cc2c(C(C)C)c(O)c(O)c(/C=N/n3c(=O)[nH][nH]c3=O)c2c(O)c1-c1c(C)cc2c(C(C)C)c(O)c(O)c(/C=N/n3c(=O)[nH][nH]c3=O)c2c1O` (atropisomer, axis not shown) [Inhibitor 33]: 122 µM; for `COc1cc(/N=C/c2c(O)c(O)c(C(C)C)c3cc(C)c(-c4c(C)cc5c(C(C)C)c(O)c(O)c(/C=N/c6ccc(C)c(OC)c6)c5c4O)c(O)c23)ccc1C` (atropisomer, axis not shown) [Inhibitor 47]: 29.1 µM.
Still for that read-out and setting: in the case of `Cc1cc2c(c(O)c1-c1c(C)cc3c(c1O)/C(=C/NC(C)CCc1ccco1)C(=O)C(O)=C3C(C)C)/C(=C/NC(C)CCc1ccco1)C(=O)C(O)=C2C(C)C` (centres unmarked) [Inhibitor 73] it was 2.03 µM.
Molecule `CCCSCC/N=C/c1c(O)c(O)c(C(C)C)c2cc(C)c(-c3c(C)cc4c(C(C)C)c(O)c(O)c(/C=N/CCSCC)c4c3O)c(O)c12` (atropisomer, axis not shown) [Inhibitor 83] showed a Ki of 84.5 µM.
Turning to `Cc1cc2c(c(O)c1-c1c(C)cc3c(c1O)/C(=C/Nc1c(C)n(C)n(-c4ccccc4)c1=O)C(=O)C(O)=C3C(C)C)/C(=C/Nc1c(C)n(C)n(-c3ccccc3)c1=O)C(=O)C(O)=C2C(C)C` (atropisomer, axis not shown) [Inhibitor 21], affinity was put at a Ki of 9.5 µM.
On the same count and under the same terms, in the case of `Cc1cc2c(c(O)c1-c1c(C)cc3c(c1O)/C(=C/Nc1cccc(C(=C4C=CC(=N)C=C4)c4ccc(N)cc4)c1)C(=O)C(O)=C3C(C)C)/C(=C/Nc1cccc(C(=C3C=CC(=N)C=C3)c3ccc(N)cc3)c1)C(=O)C(O)=C2C(C)C` [Inhibitor 30] it was 3.9 µM; in that of `Cc1cc2c(c(O)c1-c1c(C)cc3c(c1O)/C(=C/Nc1ccc(N=Nc4ccccc4)cc1)C(=O)C(O)=C3C(C)C)/C(=C/Nc1ccc(N=Nc3ccccc3)cc1)C(=O)C(O)=C2C(C)C` (atropisomer, axis not shown) [Inhibitor 18], 45.5 µM; in that of `COc1c(C)cc(/N=C/c2c(O)c(O)c(C(C)C)c3cc(C)c(-c4c(C)cc5c(C(C)C)c(O)c(O)c(/C=N/c6cc(C)c(OC)c(C)c6)c5c4O)c(O)c23)cc1C` (atropisomer, axis not shown) [Inhibitor 49], 16.1 µM.
On the same count and under the same terms, in the case of `CC1=C(C2=C(C)C(=O)c3c(c(C=O)c(O)c(O)c3C(C)C)C2=O)C(=O)c2c(C=O)c(O)c(O)c(C(C)C)c2C1=O` [Inhibitor 31] it was 960 µM; in that of `Cc1cc2c(C(C)C)c(O)c(O)c(/C=N/Nc3nnnn3-c3ccccc3)c2c(O)c1-c1c(C)cc2c(C(C)C)c(O)c(O)c(/C=N/Nc3nnnn3-c3ccccc3)c2c1O` (atropisomer, axis not shown) [Inhibitor 60], 53.3 µM.
On the same count and under the same terms, the same measure for `Cc1cc2c(c(O)c1-c1c(C)cc3c(c1O)/C(=C/Nc1ccccc1O)C(=O)C(O)=C3C(C)C)/C(=C/Nc1ccccc1O)C(=O)C(O)=C2C(C)C` (atropisomer, axis not shown) [Inhibitor 14]: 468 µM; for `Cc1cc2c(C(C)C)c(O)c(O)c(/C=N/CC34CC5CC(C)(CC(C)(C5)C3)C4)c2c(O)c1-c1c(C)cc2c(C(C)C)c(O)c(O)c(/C=N/C34CC5CC(C)(CC(C)(C5)C3)C4)c2c1O` [Inhibitor 50]: 51.3 µM.
With `Cc1cc2c(c(O)c1-c1c(C)cc3c(c1O)/C(=C/Nc1ccc(S(=O)(=O)Nc4nccs4)cc1)C(=O)C(O)=C3C(C)C)/C(=C/Nc1ccc(S(=O)(=O)Nc3nccs3)cc1)C(=O)C(O)=C2C(C)C` (atropisomer, axis not shown) [Inhibitor 23], the affinity corresponds to a Ki of 32.3 µM.
Same read-out and setting: in the case of `Cc1cc(-c2ccc(N/C=C3\C(=O)C(O)=C(C(C)C)c4cc(C)c(-c5c(C)cc6c(c5O)/C(=C/Nc5ccc(-c7ccc(N)c(C)c7)cc5C)C(=O)C(O)=C6C(C)C)c(O)c43)c(C)c2)ccc1N` (atropisomer, axis not shown) [Inhibitor 17] it was 532 µM; in that of `Cc1cc2c(C(C)C)c(O)c(O)c(/C=N/c3ccc(C(O)C(O)CO)cc3)c2c(O)c1-c1c(C)cc2c(C(C)C)c(O)c(O)c(/C=N/c3ccc(C(O)C(O)CO)cc3)c2c1O` (centres unmarked) [Inhibitor 48], 274 µM.
Same read-out and setting: in the case of `Cc1cc2c(c(O)c1-c1c(C)cc3c(c1O)/C(=C/NCSN)C(=O)C(O)=C3C(C)C)/C(=C/NCSN)C(=O)C(O)=C2C(C)C` (atropisomer, axis not shown) [Inhibitor 85] it was 30.1 µM; in that of `COc1ccc(CC(=O)N/N=C/c2c(O)c(O)c(C(C)C)c3cc(C)c(-c4c(C)cc5c(C(C)C)c(O)c(O)c(/C=N/NC(=O)Cc6ccc(OC)c(OC)c6)c5c4O)c(O)c23)cc1OC` (atropisomer, axis not shown) [Inhibitor 55], 41.6 µM.
Molecule `COc1cc(NS(=O)(=O)c2ccc(N/C=C3\C(=O)C(O)=C(C(C)C)c4cc(C)c(-c5c(C)cc6c(c5O)/C(=C/Nc5ccc(S(=O)(=O)Nc7cc(OC)nc(OC)n7)cc5)C(=O)C(O)=C6C(C)C)c(O)c43)cc2)nc(OC)n1` (atropisomer, axis not shown) [Inhibitor 20] had a Ki of 11.2 µM.
`Cc1cc2c(C(C)C)c(O)c(O)c(/C=N/CCOc3ccccc3F)c2c(O)c1-c1c(C)cc2c(C(C)C)c(O)c(O)c(/C=N/CCOc3ccccc3F)c2c1O` (atropisomer, axis not shown) [Inhibitor 76] yielded a Ki of 105 µM.
`Cc1cc2nc[nH]c2c(/N=C/c2c(O)c(O)c(C(C)C)c3cc(C)c(-c4c(C)cc5c(C(C)C)c(O)c(O)c(/C=N/c6c(C)c(C)cc7nc[nH]c67)c5c4O)c(O)c23)c1C` (atropisomer, axis not shown) [Inhibitor 86] registered a Ki of 2.58 µM.
`Cc1cc2c(c(O)c1-c1c(C)cc3c(c1O)/C(=C/NCc1cccnc1)C(=O)C(O)=C3C(C)C)/C(=C/NCc1cccnc1)C(=O)C(O)=C2C(C)C` (atropisomer, axis not shown) [Inhibitor 74] had a Ki of 123 µM. Compared with the last molecule, the Ki is about 48-fold higher.
`CN(C)c1ccc(/C=C2/SC(=S)NC2=O)cc1` [Inhibitor 68] gave a Ki of 0.27 µM. This Ki is about 460-fold lower than that of the molecule before.
In turn, `Cc1cc2c(C(C)C)c(O)c(O)c(/C=N/CCOc3ccc(C4CCCCC4)cc3)c2c(O)c1-c1c(C)cc2c(C(C)C)c(O)c(O)c(/C=N/CCOc3ccc(C4CCCCC4)cc3)c2c1O` (atropisomer, axis not shown) [Inhibitor 80] showed a Ki of 11.8 µM.
Molecule `Cc1ccc(OCC/N=C/c2c(O)c(O)c(C(C)C)c3cc(C)c(-c4c(C)cc5c(C(C)C)c(O)c(O)c(/C=N/CCOc6ccc(C)cc6)c5c4O)c(O)c23)cc1` [Inhibitor 10] returned a Ki of 3.4 µM.
Turning to `Cc1cc2c(c(O)c1-c1c(C)cc3c(c1O)/C(=C\Nc1c(O)cc(S(=O)(=O)O)c4ccccc14)C(=O)C(O)=C3C(C)C)/C(=C/Nc1c(O)cc(S(=O)(=O)O)c3ccccc13)C(=O)C(O)=C2C(C)C` [Inhibitor 29], the Ki worked out at 9.6 µM. This Ki lies about 2.8-fold higher than the previous one.
Take `Cc1cc2c(c(O)c1-c1c(C)cc3c(c1O)/C(=C\Nc1ccc(S(=O)(=O)NC(=N)N)cc1)C(=O)C(O)=C3C(C)C)/C(=C/Nc1ccc(S(=O)(=O)NC(=N)N)cc1)C(=O)C(O)=C2C(C)C` [Inhibitor 16]: affinity was put at a Ki of 1.03 µM.
`Cc1cc(C)cc(OCC(=O)C/N=C/c2c(O)c(O)c(C(C)C)c3cc(C)c(-c4c(C)cc5c(C(C)C)c(O)c(O)c(/C=N/NC(=O)COc6cc(C)cc(C)c6)c5c4O)c(O)c23)c1` [Inhibitor 3] returned a Ki of 60.4 µM. Against the preceding molecule, the Ki is about 59-fold higher.
On the same count and under the same terms, in the case of `COc1ccc(OCC/N=C/c2c(O)c(O)c(C(C)C)c3cc(C)c(-c4c(C)cc5c(C(C)C)c(O)c(O)c(/C=N/CCOc6ccc(OC)cc6)c5c4O)c(O)c23)cc1` (atropisomer, axis not shown) [Inhibitor 40] it was 29.4 µM; in that of `COc1ccc(OC)c(/N=C/c2c(O)c(O)c(C(C)C)c3cc(C)c(-c4c(C)cc5c(C(C)C)c(O)c(O)c(/C=N/c6cc(OC)ccc6OC)c5c4O)c(O)c23)c1` [Inhibitor 11], 30.5 µM.

Staying with this test, now noted: type 1 and type 2 Dixon plots; comparison compound.
Regarding `Cc1cc2c(C(C)C)c(O)c(O)c(/C=N/NC(N)=S)c2c(O)c1-c1c(O)cc2c(/C=N/NC(N)=S)c(O)c(O)c(C(C)C)c2c1C` [comparative compound, reference compound], the “inhibition (Dixon plots)” value is “does not exhibit inhibition”.

The record behind these values is patent publication US20250114359A1, “METHODS FOR […] G[…]/OR HEXOKINASE” (UNIVERSITY OF SOUTH CAROLINA, priority 2023, published 2025).
